Measurements reported in the NIST ThermoML archive (doi:10.1016/j.jct.2018.08.035).
Values joined by “and” are separate entries in the source; they are usually repeats but may differ in a detail not shown here. Identical values can stand only once.

Test: xn = mol fraction of the nth substance listed
Conditions: 100 kPa, Liquid, Vibrating tube method

CCC(O)CC [3-pentanol] + C[N+](=O)[O-]
Conditions	mass density
291.86 K, x1 = 0.325	974.982 kg/m3
291.86 K, x1 = 0.363	961.613 kg/m3
291.86 K, x1 = 0.407	946.991 kg/m3
291.86 K, x1 = 0.488	922.68 kg/m3
291.86 K, x1 = 0.546	907.193 kg/m3
291.86 K, x1 = 0.587	896.735 kg/m3
291.95 K, x1 = 0.246	1005.58 kg/m3
291.95 K, x1 = 0.275	993.548 kg/m3
291.95 K, x1 = 0.3	984.145 kg/m3
291.95 K, x1 = 0.325	974.857 kg/m3
291.95 K, x1 = 0.338	970.048 kg/m3
291.95 K, x1 = 0.363	961.485 kg/m3
291.95 K, x1 = 0.382	954.991 kg/m3
291.95 K, x1 = 0.407	946.861 kg/m3
291.95 K, x1 = 0.414	944.587 kg/m3
291.95 K, x1 = 0.486	923.287 kg/m3
291.95 K, x1 = 0.488	922.559 kg/m3
291.95 K, x1 = 0.573	900.26 kg/m3
291.95 K, x1 = 0.587	896.628 kg/m3
291.95 K, x1 = 0.615	889.805 kg/m3
291.96 K, x1 = 0.266	997.055 kg/m3
291.96 K, x1 = 0.546	907.079 kg/m3
292.05 K, x1 = 0.246	1005.45 kg/m3
292.05 K, x1 = 0.275	993.426 kg/m3
292.05 K, x1 = 0.382	954.866 kg/m3
292.05 K, x1 = 0.414	944.459 kg/m3
292.05 K, x1 = 0.486	923.167 kg/m3
292.05 K, x1 = 0.573	900.153 kg/m3
292.05 K, x1 = 0.615	889.701 kg/m3
292.06 K, x1 = 0.266	996.934 kg/m3
292.06 K, x1 = 0.3	984.022 kg/m3
292.06 K, x1 = 0.325	974.734 kg/m3
292.06 K, x1 = 0.338	969.925 kg/m3
292.06 K, x1 = 0.363	961.36 kg/m3
292.06 K, x1 = 0.407	946.736 kg/m3
292.06 K, x1 = 0.488	922.439 kg/m3
292.06 K, x1 = 0.546	906.966 kg/m3
292.06 K, x1 = 0.587	896.519 kg/m3
292.15 K, x1 = 0.246	1005.33 kg/m3
292.15 K, x1 = 0.325	974.609 kg/m3
292.15 K, x1 = 0.338	969.8 kg/m3
292.15 K, x1 = 0.382	954.742 kg/m3
292.15 K, x1 = 0.414	944.336 kg/m3
292.15 K, x1 = 0.486	923.052 kg/m3
292.15 K, x1 = 0.488	922.322 kg/m3
292.16 K, x1 = 0.266	996.81 kg/m3
292.16 K, x1 = 0.275	993.303 kg/m3
292.16 K, x1 = 0.3	983.896 kg/m3
292.16 K, x1 = 0.363	961.234 kg/m3
292.16 K, x1 = 0.407	946.608 kg/m3
292.16 K, x1 = 0.546	906.853 kg/m3
292.16 K, x1 = 0.573	900.046 kg/m3
292.16 K, x1 = 0.587	896.411 kg/m3
292.16 K, x1 = 0.615	889.595 kg/m3
292.16 K, x1 = 0.629	886.146 kg/m3
293.15 K, x1 = 0.266	995.587 kg/m3
293.15 K, x1 = 0.338	968.578 kg/m3
293.15 K, x1 = 0.546	905.746 kg/m3
293.16 K, x1 = 0.246	1004.11 kg/m3
293.16 K, x1 = 0.275	992.082 kg/m3
293.16 K, x1 = 0.3	982.679 kg/m3
293.16 K, x1 = 0.325	973.389 kg/m3
293.16 K, x1 = 0.363	960.014 kg/m3
293.16 K, x1 = 0.382	953.524 kg/m3
293.16 K, x1 = 0.407	945.397 kg/m3
293.16 K, x1 = 0.414	943.126 kg/m3
293.16 K, x1 = 0.486	921.889 kg/m3
293.16 K, x1 = 0.488	921.165 kg/m3
293.16 K, x1 = 0.573	898.962 kg/m3
293.16 K, x1 = 0.587	895.341 kg/m3
293.16 K, x1 = 0.615	888.546 kg/m3
293.16 K, x1 = 0.629	885.109 kg/m3
294.15 K, x1 = 0.246	1002.88 kg/m3
294.15 K, x1 = 0.266	994.369 kg/m3
294.15 K, x1 = 0.275	990.864 kg/m3
294.15 K, x1 = 0.3	981.466 kg/m3
294.15 K, x1 = 0.325	972.183 kg/m3
294.15 K, x1 = 0.338	967.375 kg/m3
294.15 K, x1 = 0.363	958.817 kg/m3
294.15 K, x1 = 0.382	952.329 kg/m3
294.15 K, x1 = 0.407	944.215 kg/m3
294.15 K, x1 = 0.414	941.945 kg/m3
294.15 K, x1 = 0.486	920.751 kg/m3
294.15 K, x1 = 0.488	920.031 kg/m3
294.15 K, x1 = 0.546	904.649 kg/m3
294.15 K, x1 = 0.573	897.886 kg/m3
294.15 K, x1 = 0.587	894.274 kg/m3
294.15 K, x1 = 0.615	887.502 kg/m3
294.15 K, x1 = 0.629	884.073 kg/m3
295.15 K, x1 = 0.246	1001.66 kg/m3
295.15 K, x1 = 0.266	993.153 kg/m3
295.15 K, x1 = 0.275	989.651 kg/m3
295.15 K, x1 = 0.3	980.26 kg/m3
295.15 K, x1 = 0.325	970.983 kg/m3
295.15 K, x1 = 0.338	966.179 kg/m3
295.15 K, x1 = 0.363	957.627 kg/m3
295.15 K, x1 = 0.382	951.15 kg/m3
295.15 K, x1 = 0.407	943.045 kg/m3
295.15 K, x1 = 0.414	940.778 kg/m3
295.15 K, x1 = 0.486	919.625 kg/m3
295.15 K, x1 = 0.488	918.905 kg/m3
295.15 K, x1 = 0.546	903.56 kg/m3
295.15 K, x1 = 0.587	893.213 kg/m3
295.15 K, x1 = 0.615	886.458 kg/m3
295.15 K, x1 = 0.629	883.039 kg/m3
295.16 K, x1 = 0.573	896.815 kg/m3
296.15 K, x1 = 0.275	988.439 kg/m3
296.15 K, x1 = 0.338	964.988 kg/m3
296.15 K, x1 = 0.382	949.976 kg/m3
296.15 K, x1 = 0.414	939.619 kg/m3
296.15 K, x1 = 0.615	885.416 kg/m3
296.16 K, x1 = 0.246	1000.44 kg/m3
296.16 K, x1 = 0.266	991.939 kg/m3
296.16 K, x1 = 0.3	979.058 kg/m3
296.16 K, x1 = 0.325	969.786 kg/m3
296.16 K, x1 = 0.363	956.447 kg/m3
296.16 K, x1 = 0.407	941.881 kg/m3
296.16 K, x1 = 0.486	918.503 kg/m3
296.16 K, x1 = 0.488	917.785 kg/m3
296.16 K, x1 = 0.546	902.476 kg/m3
296.16 K, x1 = 0.573	895.746 kg/m3
296.16 K, x1 = 0.587	892.153 kg/m3
296.16 K, x1 = 0.629	882.004 kg/m3
297.15 K, x1 = 0.246	999.224 kg/m3
297.15 K, x1 = 0.266	990.728 kg/m3
297.15 K, x1 = 0.3	977.857 kg/m3
297.15 K, x1 = 0.325	968.596 kg/m3
297.15 K, x1 = 0.338	963.801 kg/m3
297.15 K, x1 = 0.363	955.27 kg/m3
297.15 K, x1 = 0.382	948.809 kg/m3
297.15 K, x1 = 0.407	940.724 kg/m3
297.15 K, x1 = 0.414	938.464 kg/m3
297.15 K, x1 = 0.486	917.385 kg/m3
297.15 K, x1 = 0.488	916.67 kg/m3
297.15 K, x1 = 0.573	894.678 kg/m3
297.15 K, x1 = 0.615	884.375 kg/m3
297.15 K, x1 = 0.629	880.972 kg/m3
297.16 K, x1 = 0.275	987.23 kg/m3
297.16 K, x1 = 0.546	901.393 kg/m3
297.16 K, x1 = 0.587	891.096 kg/m3
298.15 K, x1 = 0.246	998.021 kg/m3
298.15 K, x1 = 0.266	989.517 kg/m3
298.15 K, x1 = 0.275	986.032 kg/m3
298.15 K, x1 = 0.3	976.66 kg/m3
298.15 K, x1 = 0.325	967.413 kg/m3
298.15 K, x1 = 0.338	962.62 kg/m3
298.15 K, x1 = 0.363	954.105 kg/m3
298.15 K, x1 = 0.382	947.647 kg/m3
298.15 K, x1 = 0.407	939.572 kg/m3
298.15 K, x1 = 0.414	937.32 kg/m3 and 937.319 kg/m3
298.15 K, x1 = 0.486	916.279 kg/m3
298.15 K, x1 = 0.488	915.564 kg/m3
298.15 K, x1 = 0.546	900.318 kg/m3
298.15 K, x1 = 0.573	893.615 kg/m3
298.15 K, x1 = 0.587	890.042 kg/m3
298.15 K, x1 = 0.615	883.332 kg/m3
298.15 K, x1 = 0.629	879.94 kg/m3
